Measured values from ChEMBL document CHEMBL3046451, “Design, synthesis, characterization, and in vitro antimicrobial action of novel trisubstituted s-triazines” (2012).
≈ marks a conversion by molar mass, not a printed value.

Assays:
Assay type in all cases: functional
Salmonella typhi [1] = test: Antibacterial activity against Salmonella enterica subsp. enterica serovar Typhi MTCC 733 after 24 hr by paper disk diffusion method
Staphylococcus aureus [2] = test: Antibacterial activity against Staphylococcus aureus MTCC 96 after 24 hr by agar streak dilution method; details: MTCC 96, 24 h
Aspergillus niger [3] = test: Antifungal activity against Aspergillus niger MTCC 282 after 48 hr by agar streak dilution method; details: MTCC 282, 48 h
Candida albicans [4] = test: Antifungal activity against Candida albicans MTCC 183 after 48 hr by agar streak dilution method; details: MTCC 183, 48 h
Staphylococcus aureus [5] = test: Antibacterial activity against Staphylococcus aureus MTCC 96 after 24 hr by paper disk diffusion method
Bacillus cereus [6] = test: Antibacterial activity against Bacillus cereus MTCC 619 after 24 hr by paper disk diffusion method; also: test concentration or dose not given here
Salmonella typhi [7] = test: Antibacterial activity against Salmonella enterica subsp. enterica serovar Typhi MTCC 733 after 24 hr by agar streak dilution method; details: MTCC 733, 24 h
Pseudomonas aeruginosa [8] = test: Antibacterial activity against Pseudomonas aeruginosa MTCC 741 after 24 hr by agar streak dilution method; details: MTCC 741, 24 h
Klebsiella pneumoniae [9] = test: Antibacterial activity against Klebsiella pneumoniae MTCC 109 after 24 hr by agar streak dilution method; details: MTCC 109, 24 h
Proteus vulgaris [10] = test: Antibacterial activity against Proteus vulgaris MTCC 1771 after 24 hr by paper disk diffusion method; also: test concentration or dose not given here
Proteus vulgaris [11] = test: Antibacterial activity against Proteus vulgaris MTCC 1771 after 24 hr by agar streak dilution method; details: MTCC 1771, 24 h
Bacillus cereus [12] = test: Antibacterial activity against Bacillus cereus MTCC 619 after 24 hr by agar streak dilution method; details: MTCC 619, 24 h
Escherichia coli [13] = test: Antibacterial activity against Escherichia coli MTCC 739 after 24 hr by paper disk diffusion method
Candida albicans [14] = test: Antifungal activity against Candida albicans MTCC 183 after 24 hr by paper disk diffusion method; also: test concentration or dose not given here
Shigella flexneri [15] = test: Antibacterial activity against Shigella flexneri MTCC 1457 after 24 hr by paper disk diffusion method
Escherichia coli [16] = test: Antibacterial activity against Escherichia coli MTCC 739 after 24 hr by agar streak dilution method; details: MTCC 739, 24 h
Aspergillus niger [17] = test: Antifungal activity against Aspergillus niger MTCC 282 after 24 hr by paper disk diffusion method; also: test concentration or dose not given here
Shigella flexneri [18] = test: Antibacterial activity against Shigella flexneri MTCC 1457 after 24 hr by agar streak dilution method; details: MTCC 1457, 24 h
Pseudomonas aeruginosa [19] = test: Antibacterial activity against Pseudomonas aeruginosa MTCC 741 after 24 hr by paper disk diffusion method
Klebsiella pneumoniae [20] = test: Antibacterial activity against Klebsiella pneumoniae MTCC 109 after 24 hr by paper disk diffusion method

SMILES	inhibition zone (IZ) (Salmonella typhi [1])	MIC (Staphylococcus aureus [2])	MIC (Aspergillus niger [3])	MIC (Candida albicans [4])	inhibition zone (IZ) (Staphylococcus aureus [5])	inhibition zone (IZ) (Bacillus cereus [6])	MIC (Salmonella typhi [7])	MIC (Pseudomonas aeruginosa [8])	MIC (Klebsiella pneumoniae [9])	inhibition zone (IZ) (Proteus vulgaris [10])	MIC (Proteus vulgaris [11])	MIC (Bacillus cereus [12])	inhibition zone (IZ) (Escherichia coli [13])	inhibition zone (IZ) (Candida albicans [14])	inhibition zone (IZ) (Shigella flexneri [15])	MIC (Escherichia coli [16])	inhibition zone (IZ) (Aspergillus niger [17])	MIC (Shigella flexneri [18])	inhibition zone (IZ) (Pseudomonas aeruginosa [19])	inhibition zone (IZ) (Klebsiella pneumoniae [20])
CC(C)Nc1nc(Nc2ccc(C#N)cc2)nc(Oc2cc(=O)n(C)c3ccccc23)n1	6 mm	50 µg/mL (≈ 117 µM)	50 µg/mL (≈ 117 µM)	50 µg/mL (≈ 117 µM)	8 mm	13 mm	50 µg/mL (≈ 117 µM)	50 µg/mL (≈ 117 µM)	50 µg/mL (≈ 117 µM)	8 mm	50 µg/mL (≈ 117 µM)	25 µg/mL (≈ 58.5 µM)	9 mm	7 mm	8 mm	50 µg/mL (≈ 117 µM)	8 mm	50 µg/mL (≈ 117 µM)	<5 mm	–
CCN(CC)c1nc(Nc2ccc(C#N)cc2)nc(Oc2cc(=O)n(C)c3ccccc23)n1	10 mm	25 µg/mL (≈ 56.6 µM)	50 µg/mL (≈ 113 µM)	50 µg/mL (≈ 113 µM)	13 mm	16 mm	50 µg/mL (≈ 113 µM)	50 µg/mL (≈ 113 µM)	50 µg/mL (≈ 113 µM)	<5 mm	50 µg/mL (≈ 113 µM)	12.5 µg/mL (≈ 28.3 µM)	11 mm	9 mm	10 mm	50 µg/mL (≈ 113 µM)	9 mm	50 µg/mL (≈ 113 µM)	10 mm	–
Cn1c(=O)cc(Oc2nc(NCCc3cccs3)nc(Nc3ccc(C#N)cc3)n2)c2ccccc21	12 mm	6.25 µg/mL (≈ 12.6 µM)	25 µg/mL (≈ 50.4 µM)	25 µg/mL (≈ 50.4 µM)	15 mm	13 mm	50 µg/mL (≈ 101 µM)	50 µg/mL (≈ 101 µM)	50 µg/mL (≈ 101 µM)	7 mm	50 µg/mL (≈ 101 µM)	25 µg/mL (≈ 50.4 µM)	10 mm	15 mm	14 mm	50 µg/mL (≈ 101 µM)	13 mm	25 µg/mL (≈ 50.4 µM)	10 mm	10 mm
CN(C)c1nc(Nc2ccc(C#N)cc2)nc(Oc2cc(=O)n(C)c3ccccc23)n1	7 mm	50 µg/mL (≈ 121 µM)	> 50 µg/mL	> 50 µg/mL	12 mm	14 mm	50 µg/mL (≈ 121 µM)	50 µg/mL (≈ 121 µM)	50 µg/mL (≈ 121 µM)	9 mm	50 µg/mL (≈ 121 µM)	12.5 µg/mL (≈ 30.2 µM)	10 mm	<5 mm	<5 mm	50 µg/mL (≈ 121 µM)	<5 mm	50 µg/mL (≈ 121 µM)	8 mm	–
Cn1c(=O)cc(Oc2nc(NCCO)nc(Nc3ccc(C#N)cc3)n2)c2ccccc21	9 mm	50 µg/mL (≈ 116 µM)	> 50 µg/mL	> 50 µg/mL	<5 mm	<5 mm	50 µg/mL (≈ 116 µM)	50 µg/mL (≈ 116 µM)	50 µg/mL (≈ 116 µM)	7 mm	50 µg/mL (≈ 116 µM)	50 µg/mL (≈ 116 µM)	<5 mm	<5 mm	7 mm	50 µg/mL (≈ 116 µM)	<5 mm	50 µg/mL (≈ 116 µM)	9 mm	–
Cn1c(=O)cc(Oc2nc(NCC(=O)O)nc(Nc3ccc(C#N)cc3)n2)c2ccccc21	8 mm	50 µg/mL (≈ 113 µM)	50 µg/mL (≈ 113 µM)	> 50 µg/mL	<5 mm	7 mm	50 µg/mL (≈ 113 µM)	50 µg/mL (≈ 113 µM)	50 µg/mL (≈ 113 µM)	13 mm	25 µg/mL (≈ 56.4 µM)	50 µg/mL (≈ 113 µM)	<5 mm	<5 mm	9 mm	50 µg/mL (≈ 113 µM)	7 mm	50 µg/mL (≈ 113 µM)	8 mm	–
CCCCNc1nc(Nc2ccc(C#N)cc2)nc(Oc2cc(=O)n(C)c3ccccc23)n1	6 mm	50 µg/mL (≈ 113 µM)	> 50 µg/mL	50 µg/mL (≈ 113 µM)	12 mm	8 mm	50 µg/mL (≈ 113 µM)	25 µg/mL (≈ 56.6 µM)	50 µg/mL (≈ 113 µM)	<5 mm	50 µg/mL (≈ 113 µM)	50 µg/mL (≈ 113 µM)	<5 mm	6 mm	7 mm	50 µg/mL (≈ 113 µM)	<5 mm	50 µg/mL (≈ 113 µM)	11 mm	–
